# Measured values taken from ChEMBL document CHEMBL1201862, “PubChem BioAssay data set” (2004).
#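 Briefly, cells in 96-well plates were exposed to five compound concentrations for 48 h, and endpoints were estimated by linear interpolation. GI50 is the concentration that inhibits growth by half.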 Calls of active or inactive are those of the source. Rule as the data show it: active = GI50 up to about 1.1 µM and inactive = higher.
# Legend:
# Experiment in all cases: NCI-60 cell line screen, 48 h
# [1] = tested on: NCI-H23
# [2] = tested on: RPMI-8226
# [3] = tested on: CAKI-1
# [4] = tested on: A549
# [5] = tested on: Malme-3M
# [6] = tested on: DU-145
# [7] = tested on: COLO 205
# [8] = tested on: MOLT-4
# [9] = tested on: SK-MEL-28
# [10] = tested on: Hs-578T
# [11] = tested on: NCI-H226
# [12] = tested on: SNB-75
# [13] = tested on: HCC 2998
# [14] = tested on: U-251
# [15] = tested on: M14
# [16] = tested on: KM12
# [17] = tested on: MDA-N
# [18] = tested on: SNB-19
# [19] = tested on: OVCAR-5
# [20] = tested on: NCI/ADR-RES
# [21] = tested on: HCT-116
# [22] = tested on: MDA-MB-231
# [23] = tested on: SK-MEL-5
# [24] = tested on: NCI-H460
# [25] = tested on: HCT-15
# [26] = tested on: PC-3
# [27] = tested on: SF-268
# [28] = tested on: SF-295
# [29] = tested on: TK-10
# [30] = tested on: T47D
# [31] = tested on: SK-OV-3
# [32] = tested on: UACC-257
# [33] = tested on: EKVX
# [34] = tested on: OVCAR-8
# [35] = tested on: SF-539
# [36] = tested on: 786-0
# [37] = tested on: SN12C
# [38] = tested on: NCI-H522
# [39] = tested on: SK-MEL-2
# [40] = tested on: OVCAR-4
# [41] = tested on: HOP-92
# [42] = tested on: HT-29
# [43] = tested on: LOX IMVI
# [44] = tested on: BT-549
# [45] = tested on: CCRF-CEM
# [46] = tested on: UO-31
# [47] = tested on: ACHN
# [48] = tested on: MDA-MB-435
# [49] = tested on: UACC-62
# [50] = tested on: A498
# [51] = tested on: MCF7
# [52] = tested on: IGROV-1
# [53] = tested on: HL-60
# [54] = tested on: OVCAR-3
# [55] = tested on: SW-620
# [56] = tested on: HOP-62
# [57] = tested on: K562
# [58] = tested on: RXF 393
smiles,measurement,setting,value
COC(C)C(O)(C(=O)OCC1=CCN2CCC(O)C12)C(C)(C)O (configuration not stated),GI50,[1],> 100 µM (inactive)
same,GI50,[2],> 100 µM (inactive)
same,GI50,[3],> 100 µM (inactive)
same,GI50,[4],> 100 µM (inactive)
same,GI50,[5],> 100 µM (inactive)
same,GI50,[6],> 100 µM (inactive)
same,GI50,[7],> 100 µM (inactive)
same,GI50,[8],> 100 µM (inactive)
same,GI50,[9],> 100 µM (inactive)
same,GI50,[10],> 100 µM (inactive)
same,GI50,[11],> 100 µM (inactive)
same,GI50,[12],> 100 µM (inactive)
same,GI50,[13],> 100 µM (inactive)
same,GI50,[14],> 100 µM (inactive)
same,GI50,[15],> 100 µM (inactive)
same,GI50,[16],> 100 µM (inactive)
same,GI50,[17],> 100 µM (inactive)
same,GI50,[18],> 100 µM (inactive)
same,GI50,[19],> 100 µM (inactive)
same,GI50,[20],> 100 µM (inactive)
same,GI50,[21],> 100 µM (inactive)
same,GI50,[22],> 100 µM (inactive)
same,GI50,[23],> 100 µM (inactive)
same,GI50,[24],> 100 µM (inactive)
same,GI50,[25],> 100 µM
same,GI50,[26],> 100 µM (inactive)
same,GI50,[27],> 100 µM (inactive)
same,GI50,[28],> 100 µM (inactive)
same,GI50,[29],> 100 µM (inactive)
same,GI50,[30],> 100 µM (inactive)
same,GI50,[31],> 100 µM (inactive)
same,GI50,[32],> 100 µM (inactive)
same,GI50,[33],> 100 µM (inactive)
same,GI50,[34],> 100 µM (inactive)
same,GI50,[35],> 100 µM (inactive)
same,GI50,[36],> 100 µM (inactive)
same,GI50,[37],> 100 µM (inactive)
same,GI50,[38],> 100 µM (inactive)
same,GI50,[39],> 100 µM (inactive)
same,GI50,[40],> 100 µM (inactive)
same,GI50,[41],> 100 µM (inactive)
same,GI50,[42],> 100 µM (inactive)
same,GI50,[43],> 100 µM (inactive)
same,GI50,[44],> 100 µM (inactive)
same,GI50,[45],> 100 µM (inactive)
same,GI50,[46],> 100 µM (inactive)
same,GI50,[47],> 100 µM (inactive)
same,GI50,[48],> 100 µM (inactive)
same,GI50,[49],> 100 µM (inactive)
same,GI50,[50],> 100 µM (inactive)
same,GI50,[51],> 100 µM (inactive)
same,GI50,[52],> 100 µM (inactive)
same,GI50,[53],> 100 µM (inactive)
same,GI50,[54],> 100 µM (inactive)
same,GI50,[55],> 100 µM (inactive)
O=c1[nH]cc(-c2c[nH]c3ccccc23)nc1-c1c[nH]c2ccccc12,GI50,[1],14.7 µM (inactive)
same,GI50,[2],9.73 µM (inactive)
same,GI50,[3],3.28 µM (inactive)
same,GI50,[4],21 µM (inactive)
same,GI50,[5],11.2 µM (inactive)
same,GI50,[56],12.5 µM (inactive)
same,GI50,[6],13.2 µM (inactive)
same,GI50,[7],10.9 µM (inactive)
same,GI50,[9],15.2 µM (inactive)
same,GI50,[10],14.2 µM (inactive)
same,GI50,[12],10.3 µM (inactive)
same,GI50,[13],9.57 µM (inactive)
same,GI50,[57],2.96 µM (inactive)
same,GI50,[14],21 µM (inactive)
same,GI50,[15],10.7 µM (inactive)
same,GI50,[16],4.95 µM (inactive)
same,GI50,[17],2.47 µM (inactive)
same,GI50,[18],15.8 µM (inactive)
same,GI50,[19],11.2 µM (inactive)
same,GI50,[20],16.4 µM (inactive)
same,GI50,[21],10.8 µM (inactive)
same,GI50,[22],22.3 µM (inactive)
same,GI50,[23],13.4 µM (inactive)
same,GI50,[24],13.8 µM (inactive)
same,GI50,[25],11.1 µM
same,GI50,[26],14.5 µM (inactive)
same,GI50,[27],13 µM (inactive)
same,GI50,[58],2.74 µM (inactive)
same,GI50,[28],4.53 µM (inactive)
same,GI50,[29],11.7 µM (inactive)
same,GI50,[30],8.55 µM (inactive)
same,GI50,[31],13.4 µM (inactive)
same,GI50,[32],13 µM (inactive)
same,GI50,[33],12.2 µM (inactive)
same,GI50,[34],12.8 µM (inactive)
same,GI50,[35],8.63 µM (inactive)
same,GI50,[36],11.3 µM (inactive)
same,GI50,[37],13.2 µM (inactive)
same,GI50,[38],6.79 µM (inactive)
same,GI50,[39],14.8 µM (inactive)
same,GI50,[40],6.58 µM (inactive)
same,GI50,[41],12.3 µM (inactive)
same,GI50,[43],11.2 µM (inactive)
same,GI50,[44],15.3 µM (inactive)
same,GI50,[46],8.51 µM (inactive)
same,GI50,[47],11.6 µM (inactive)
same,GI50,[48],3.29 µM (inactive)
same,GI50,[49],11.1 µM (inactive)
same,GI50,[50],14.7 µM (inactive)
same,GI50,[51],10.2 µM (inactive)
same,GI50,[52],2.92 µM (inactive)
same,GI50,[54],9.51 µM (inactive)
same,GI50,[55],4.9 µM (inactive)
N#Cc1sc2nc3ccccc3n2c1N,GI50,[1],52.5 µM (inactive)
same,GI50,[2],84.3 µM (inactive)
same,GI50,[3],37.2 µM (inactive)
same,GI50,[4],47.4 µM (inactive)
same,GI50,[5],> 100 µM (inactive)
same,GI50,[56],84.5 µM (inactive)
same,GI50,[6],94.8 µM (inactive)
same,GI50,[7],78.7 µM (inactive)
same,GI50,[8],31.4 µM (inactive)
same,GI50,[9],> 100 µM (inactive)
same,GI50,[10],36.2 µM (inactive)
same,GI50,[11],95.9 µM (inactive)
same,GI50,[12],29.7 µM (inactive)
same,GI50,[13],36.2 µM (inactive)
same,GI50,[14],83.9 µM (inactive)
same,GI50,[15],> 100 µM (inactive)
same,GI50,[16],0.344 µM (active)
same,GI50,[17],> 100 µM (inactive)
same,GI50,[18],> 100 µM (inactive)
same,GI50,[19],> 100 µM (inactive)
same,GI50,[20],> 100 µM (inactive)
same,GI50,[21],> 100 µM (inactive)
same,GI50,[22],76.4 µM (inactive)
same,GI50,[23],95.7 µM (inactive)
same,GI50,[25],65.5 µM
same,GI50,[26],73.6 µM (inactive)
same,GI50,[27],60.3 µM (inactive)
same,GI50,[58],17.6 µM (inactive)
same,GI50,[28],> 100 µM (inactive)
same,GI50,[29],14.9 µM (inactive)
same,GI50,[30],89.7 µM (inactive)
same,GI50,[31],40.1 µM (inactive)
same,GI50,[32],> 100 µM (inactive)
same,GI50,[33],85.1 µM (inactive)
same,GI50,[34],78.2 µM (inactive)
same,GI50,[35],55.3 µM (inactive)
same,GI50,[36],> 100 µM (inactive)
same,GI50,[38],> 100 µM (inactive)
same,GI50,[39],26.1 µM (inactive)
same,GI50,[40],> 100 µM (inactive)
same,GI50,[41],> 100 µM (inactive)
same,GI50,[42],75 µM (inactive)
same,GI50,[43],40.8 µM (inactive)
same,GI50,[44],49.2 µM (inactive)
same,GI50,[45],29.3 µM (inactive)
same,GI50,[46],36.6 µM (inactive)
same,GI50,[47],92.3 µM (inactive)
same,GI50,[48],> 100 µM (inactive)
same,GI50,[49],62.4 µM (inactive)
same,GI50,[50],39.4 µM (inactive)
same,GI50,[51],84.5 µM (inactive)
same,GI50,[52],58.7 µM (inactive)
same,GI50,[54],68.7 µM (inactive)
same,GI50,[55],92.5 µM (inactive)
